TGI and GI50 data for ten compounds are collected here from PubChem BioAssay (NCI).

Holding throughout (assay): NCI anticancer screen, dose series, 48 h
Assay [1] relates to A549 NSCLC.
The test system of assay [2] is SR leukemia.
The subject of assay [3] is ACHN renal.
Assay [4] has as its system HT29 colon.
The subject of assay [5] is HOP-62 NSCLC.
The test system of assay [6] is MOLT-4 leukemia.
Assay [7] relates to RXF 393 renal.
Assay [8] concerns HOP-92 NSCLC.
Assay [9] deals with SK-MEL-28 melanoma.
Assay [10] has as its system PC-3 prostate.

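48-hour exposure; five concentrations; linearly interpolated endpoints. Here, GI50 denotes the concentration required for 50% inhibition of growth. TGI: total growth inhibition.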

As to `Cc1nc(NC(=S)NC(=O)c2ccc(Cl)c(Cl)c2)sc1C(=O)/C=C/c1ccccc1[N+](=O)[O-]`, the TGI in assay [1] is 60.3 µM; in assay [2], 63.1 µM; in assay [3], 67.4 µM; in assay [4], 46 µM; in assay [5] it was 47.9 µM; in assay [6], 52.6 µM. The TGI in assay [7] amounted to 41 µM; in [8], 24.2 µM; in [9] it was 78.4 µM.
As for `C=C1C(=O)O[C@@H]2[C@H]1CC[C@H](C)[C@]1(O)CCC(=O)[C@@]21C`, the TGI in assay [1], in assay [2], in [4], in [5], in assay [6] and in assay [7] was > 10 µM each time. The TGI in [10], in assay [8] and in assay [9] was > 10 µM in each case.
As to `O=C1C(=O)c2cc([N+](=O)[O-])ccc2-c2ccccc21`, the GI50 was 1.9 µM in assay [1]; 1.6 µM in assay [3]; 1.95 µM in assay [4]; 1.96 µM in assay [7]; 1.97 µM in assay [10]; 1.66 µM in [8]. For the same compound, the GI50 in [9] was 1.73 µM. For the same compound, the TGI came out at 3.56 µM in assay [1]; 2.96 µM in assay [3]; 3.9 µM in [4]; 3.43 µM in [7]; 3.72 µM in assay [10]; 3.12 µM in [8]. Besides, the TGI in [9] turned out to be 3.11 µM.
Take `CCCCCCCCN(CCCCCCCC)C(=N)c1ccnc2ccccc12`: the GI50 was 1.58 µM in [1]; 1.37 µM in assay [3]; 0.292 µM in [4]; 1.42 µM in assay [5]; 0.874 µM in assay [7]; 1.16 µM in assay [10]. Further, the results for the GI50 in [8] and in assay [9] were 1.02 µM and 0.312 µM, respectively. Moreover, the TGI was determined as 3.11 µM in assay [1]; 2.78 µM in assay [3]; 1.06 µM in assay [4]; 2.88 µM in assay [5]; 2.36 µM in assay [7]; 2.52 µM in assay [10]. In addition, the TGI in assay [8] turned out to be 2.32 µM; in [9] it was 1.07 µM.
On to `CCN1C(=O)N(CC)C2C1NN=c1s/c(=C3\C(=O)N(CCC(C)C)c4ccccc43)c(=O)n12` (stereo not drawn), for which the GI50 in assay [2] is 0.456 µM; in assay [3], 1.86 µM; in assay [5] it was 1.89 µM; in assay [6] it was 2.86 µM; in assay [7] it was 0.738 µM; in assay [10], 2.91 µM. Besides, the results for the GI50 in assay [8] and in [9] were 1.47 µM and 2.58 µM, respectively. Moreover, the TGI in [2] was > 100 µM; in assay [3] it was 6.7 µM; in assay [5], 6.45 µM; in assay [6] it was > 100 µM; in [7], 3.62 µM; in assay [10], > 100 µM. The TGI in assay [8] was 5.83 µM; in assay [9] it was > 100 µM.
Regarding `C[C@]12CCC[C@H](OC=O)C1(O)C[C@H](C(=O)O)CC2` (stereo partly drawn), the TGI in assay [1], in assay [2], in [3], in assay [4], in [5] and in [6] was > 100 µM throughout. The TGI in [7], in assay [8] and in assay [9] was > 100 µM each time.
Turning to `COc1ccc(OC)c(/C=C/c2nnc(Nc3ccc(Cl)cc3)o2)c1`, the GI50 in assay [1] was 3.67 µM; in assay [2] it was 48.2 µM; in assay [3], 3.29 µM; in [4] it was 9.44 µM; in assay [5], 2.71 µM; in assay [6], > 100 µM. In addition, the GI50 was 2.71 µM in assay [7], 13.3 µM in assay [10] and 26.8 µM in [9]. For the same compound, the TGI in [1] is 17.8 µM; in assay [2], > 100 µM; in assay [3], 19.9 µM; in [4], 28.3 µM; in assay [5], 7.68 µM; in assay [6] it was > 100 µM. Besides, the TGI in [7] was 7.92 µM; in assay [10], 76 µM; in assay [9], > 100 µM.
Regarding `O=C(O)C1C2C=CC(O2)C1C(=O)Nc1ccccc1` (stereo not drawn), the TGI in assay [1], in [2], in [3], in [4], in [5] and in [6] was > 100 µM in each case. Besides, the TGI in assay [7], in [10] and in assay [9] was > 100 µM throughout.
Turning to `CS(=O)(=O)c1ccc(N/N=C/c2c(-c3ccc(S(C)(=O)=O)cc3)[nH]c3ccc(F)cc23)cc1`, the GI50 in assay [1] is 7.98 µM; in assay [3] it was 3.32 µM; in [4], 2.08 µM; in [5], 2.17 µM; in assay [6], 1.19 µM; in assay [7] it was 0.904 µM. Further, the values for the GI50 in [10], in assay [8] and in [9] were 2.18 µM, 2.18 µM and 1.59 µM, respectively. Besides, the TGI was > 50 µM in assay [1]; > 50 µM in assay [3]; > 50 µM in assay [4]; > 50 µM in [5]; > 50 µM in assay [6]; 1.94 µM in assay [7]. For the same compound, the TGI in assay [10], in assay [8] and in assay [9] was > 50 µM each time.
Regarding `C#C[C@@]1(O)[C@@H](CO)O[C@@H](n2cc(Cl)c3c(N)ncnc32)[C@@H]1O`, the GI50 was 0.073 µM in [2]; 0.0436 µM in assay [4]; 0.254 µM in assay [5]; 0.17 µM in assay [6]; 0.299 µM in assay [7]; 0.191 µM in [10]. Moreover, the GI50 in [8] is 0.454 µM; in assay [9], 0.575 µM. The TGI in [2] is > 100 µM; in assay [5], 1.97 µM; in assay [6], > 26.4 µM; in assay [7], 0.813 µM; in [10], 4 µM; in assay [8], 3.53 µM. The TGI in assay [9] came to 71.5 µM.
